Measured values: PMC9989937, “In-vitro antioxidant, lipoxygenase inhibitory, and in-vivo muscle relaxant potential of the extract and constituent isolated from Diospyros kaki (Japanese Persimmon)” (Heliyon, 2023)
Values belong to the molecule of their own block, whether it stands above or below them.

Columns and labels:
[1] = biological target: T1, lipoxygenase (EC 1.13.11.12) Type 1 (soybean) (Glycine max, UniProt P08170); test: spectrophotometric lipoxygenase inhibition assay with linoleic acid substrate (positive control); assay type: biochemical
T1 construct: gene LOX1.1
T1 sequence (P08170 1-839): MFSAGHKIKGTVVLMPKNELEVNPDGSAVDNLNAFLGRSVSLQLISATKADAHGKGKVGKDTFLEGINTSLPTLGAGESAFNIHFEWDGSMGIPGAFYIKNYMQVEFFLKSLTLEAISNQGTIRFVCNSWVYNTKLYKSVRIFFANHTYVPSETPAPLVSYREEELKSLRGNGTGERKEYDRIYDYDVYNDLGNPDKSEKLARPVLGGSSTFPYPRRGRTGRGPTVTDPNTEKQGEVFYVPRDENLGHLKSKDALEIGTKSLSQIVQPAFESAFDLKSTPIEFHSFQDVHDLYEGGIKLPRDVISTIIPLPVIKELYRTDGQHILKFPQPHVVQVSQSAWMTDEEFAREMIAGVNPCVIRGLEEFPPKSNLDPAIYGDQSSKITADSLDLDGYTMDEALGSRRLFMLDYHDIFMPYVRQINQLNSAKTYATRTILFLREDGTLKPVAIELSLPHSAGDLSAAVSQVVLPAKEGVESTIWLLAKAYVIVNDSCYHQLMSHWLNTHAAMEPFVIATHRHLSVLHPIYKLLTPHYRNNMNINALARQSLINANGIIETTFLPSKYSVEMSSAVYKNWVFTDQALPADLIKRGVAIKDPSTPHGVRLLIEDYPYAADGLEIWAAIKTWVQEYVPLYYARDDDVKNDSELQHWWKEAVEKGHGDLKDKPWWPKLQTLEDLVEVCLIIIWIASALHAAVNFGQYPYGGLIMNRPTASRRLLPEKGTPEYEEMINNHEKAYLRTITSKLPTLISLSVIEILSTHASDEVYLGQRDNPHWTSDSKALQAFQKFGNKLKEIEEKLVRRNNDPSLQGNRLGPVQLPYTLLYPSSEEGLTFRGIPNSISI

[2] = biological target: T1, lipoxygenase (EC 1.13.11.12) Type 1 (soybean); test: spectrophotometric lipoxygenase inhibition assay with linoleic acid substrate; assay type: biochemical

Structure (SMILES): O=c1cc(-c2ccccc2)oc2cc(O)c(O)c(O)c12 [Baicalein]
IC50 [1]: 40.9 µM

IC50 ([1]; read-out: IC50): 23 µM
Structure (SMILES): NC(=O)N1C(=O)/C(=C(\O)c2cccs2)c2cc(Cl)ccc21 [Tenidap]

IC50 [2]: 37 µM
Structure (SMILES): COc1c(C)c(-c2cc(O)c3c(c2O)C(=O)C(C)=CC3=O)c(OC)c2c1C(=O)C=CC2=O [compound 1, 1′,4′-dihydroxy-1,4-dimethoxy-3,7′-dimethyl-[2,2′-binaphthalene]-5,5′,8,8′-tetraone]
